Measured values published in ChEMBL document CHEMBL1135547, “Anticholinesterase activity of compounds related to geneserine tautomers. N-Oxides and 1,2-oxazines” (J Med Chem, 2002).

Columns and labels:
Acetylcholinesterase = Acetylcholinesterase (Homo sapiens, UniProt P22303)
Description: Ex vivo inhibition of human erythrocyte Acetylcholinesterase.

Cholinesterase = Cholinesterase (Homo sapiens, UniProt P06276)
Cholinesterase, sequence (P06276 whole entry): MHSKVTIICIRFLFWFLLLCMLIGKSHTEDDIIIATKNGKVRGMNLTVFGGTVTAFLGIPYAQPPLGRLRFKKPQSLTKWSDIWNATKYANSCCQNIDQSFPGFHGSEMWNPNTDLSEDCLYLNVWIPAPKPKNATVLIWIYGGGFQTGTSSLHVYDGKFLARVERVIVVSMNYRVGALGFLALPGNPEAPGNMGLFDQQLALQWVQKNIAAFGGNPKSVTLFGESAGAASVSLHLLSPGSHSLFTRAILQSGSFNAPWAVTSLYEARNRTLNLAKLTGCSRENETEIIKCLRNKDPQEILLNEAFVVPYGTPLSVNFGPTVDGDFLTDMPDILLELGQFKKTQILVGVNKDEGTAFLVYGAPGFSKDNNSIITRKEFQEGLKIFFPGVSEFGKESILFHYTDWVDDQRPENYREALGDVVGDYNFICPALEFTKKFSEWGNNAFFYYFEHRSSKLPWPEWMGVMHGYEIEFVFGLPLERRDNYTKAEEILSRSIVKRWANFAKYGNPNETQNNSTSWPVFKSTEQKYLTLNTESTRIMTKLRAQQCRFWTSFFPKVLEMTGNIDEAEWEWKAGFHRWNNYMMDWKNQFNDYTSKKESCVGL
Description: Ex vivo inhibition of human plasma Butyrylcholinesterase.

Acetylcholinesterase, sequence (P22303 whole entry): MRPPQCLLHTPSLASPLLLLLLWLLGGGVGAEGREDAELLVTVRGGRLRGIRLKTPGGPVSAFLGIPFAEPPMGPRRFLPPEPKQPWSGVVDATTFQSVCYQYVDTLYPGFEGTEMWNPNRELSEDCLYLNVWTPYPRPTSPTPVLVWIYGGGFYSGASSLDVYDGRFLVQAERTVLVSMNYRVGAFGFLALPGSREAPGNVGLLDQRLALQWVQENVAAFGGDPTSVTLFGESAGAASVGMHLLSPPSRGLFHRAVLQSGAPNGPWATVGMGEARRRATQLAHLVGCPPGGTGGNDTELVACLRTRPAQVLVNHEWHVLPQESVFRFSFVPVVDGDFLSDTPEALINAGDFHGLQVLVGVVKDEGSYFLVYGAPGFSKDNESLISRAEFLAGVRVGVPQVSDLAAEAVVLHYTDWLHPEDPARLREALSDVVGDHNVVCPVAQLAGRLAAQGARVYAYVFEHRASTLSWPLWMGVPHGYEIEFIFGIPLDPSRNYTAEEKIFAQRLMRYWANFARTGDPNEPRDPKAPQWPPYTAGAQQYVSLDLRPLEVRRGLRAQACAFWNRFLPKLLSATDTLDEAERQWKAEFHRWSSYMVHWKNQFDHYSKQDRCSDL

| Compound | IC50 (Acetylcholinesterase) | IC50 (Cholinesterase) |
| --- | --- | --- |
| CNC(=O)Oc1ccc2c(c1)[C@]1(C)CC[N@@+](C)([O-])[C@@H]1N2C | 100 nM | 660 nM |
| Cc1ccccc1NC(=O)Oc1ccc2c(c1)[C@]1(C)CCN(C)O[C@@H]1N2C | 175 nM | 1570 nM |
| CCc1ccccc1NC(=O)Oc1ccc2c(c1)[C@]1(C)CCN(C)O[C@@H]1N2C [GANSTIGMINE] | 65 nM | 310 nM |
| CCCCCCCNC(=O)Oc1ccc2c(c1)[C@]1(C)CCN(C)[C@@H]1N2C [EPTASTIGMINE] | 22 nM | 5 nM |
| CN1CC[C@@]2(C)c3cc(OC(=O)Nc4ccccc4)ccc3N(C)[C@H]2O1 | 130 nM | 815 nM |
| CC(C)c1ccc(NC(=O)Oc2ccc3c(c2)[C@]2(C)CCN(C)O[C@@H]2N3C)cc1 | > 10000 nM | 25 nM |
| CN1c2ccc(OC(=O)Nc3ccccc3)cc2[C@]2(C)CC[N@@+](C)([O-])[C@H]12 | 200 nM | > 10000 nM |
| CNC(=O)Oc1ccc2c(c1)[C@]1(C)CCN(C)O[C@@H]1N2C [ESERIDINE] |  | 12 nM |
| CCc1ccccc1NC(=O)Oc1ccc2c(c1)[C@]1(C)CC[N@@+](C)([O-])[C@@H]1N2C | 125 nM | 1700 nM |
| Cc1ccccc1NC(=O)Oc1ccc2c(c1)[C@]1(C)CC[N@@+](C)([O-])[C@@H]1N2C | 180 nM | > 10000 nM |
| CC(C)c1ccc(NC(=O)Oc2ccc3c(c2)[C@]2(C)CC[N@@+](C)([O-])[C@@H]2N3C)cc1 | > 10000 nM | 5200 nM |
| C/C=C1\[C@H]2C=C(C)C[C@]1(N)c1ccc(=O)[nH]c1C2 [HUPERZINE A] |  | > 10000 nM |
